system: A549 cells; assay: IL-1β stimulated IL-6 Production in A549 cells; assay type: cell-based; details: Homo sapiens, 1 ng/ml rhIL1β, 18 hrs, read-out: IL-6 Production IC
Protocol: IL-1β stimulated IL-6 Production in A549 cells: The cellular efficacy of compound candidates is determined using the human lung epithelial cell line A549 (ATCC #CCL-185), based upon the methods of Wheeler et al. (2004) J. Nutrition 134, 1039-1044, and Eda et al. (2011) Cell Biol. Int. 35, 355-358. A549 cells produce a number of cytokines (IL6, IL8 and TNFα) in response to stimulation with IL1β. To induce the production of inflammatory mediators, A549 cells are plated at a final concentration of 3×10^5 cells/well of a 96 well flat bottom plate in F12-K medium supplemented with 10% fetal bovine serum, 100 units/ml penicillin and 100 μg/ml streptomycin (Gibco BRL Life Technologies). Cells are treated with or without inhibitors for 3 hrs then stimulated with 1 ng/ml rhIL1β (R & D Systems) for an additional 18 hrs at 37° C. with 5% CO2. The supernatants are removed and stored at −20° C. until they are to be assayed. The levels of inflammatory mediators are determined using commercial MSD cytokine kits (Meso Scale Discovery) as per the manufacturer's instructions. Standard curves are based on 7 steps of 4× serial dilutions, with a wide dynamic range of 10000 pg/ml to 2.4 pg/ml, and the blank in triplicate. Lower limit of detection (LLOD) is calculated at the commonly used 3× the standard deviation of the blank.
Compounds were tested in accordance with the above described assay, yielding the values described below: […]

Point of comparison: `NC(=O)/C=C/c1c[nH]c2ncnc(Oc3ccccc3)c12` [Example 190, (E)-3-(4-phenoxy-7H-pyrrolo[2,3-d]pyrimidin-5-yl)acrylamide], IC50 1000 nM. Against it:
- CCC(C)Oc1ncnc2[nH]cc(/C=C/C(N)=O)c12 (centres unmarked) [Example 187, (E)-3-(4-(sec-butoxy)-7H-pyrrolo[2,3-d]pyrimidin-5-yl)acrylamide] — 5.3-fold lower, 190 nM
- CC(C)Oc1ncnc2[nH]cc(/C=C/C(N)=O)c12 [Example 188, (E)-3-(4-isopropoxy-7H-pyrrolo[2,3-d]pyrimidin-5-yl)acrylamide] — 5.9-fold lower, 170 nM
- CCCOc1ncnc2[nH]cc(/C=C/C(N)=O)c12 [Example 189, (E)-3-(4-propoxy-7H-pyrrolo[2,3-d]pyrimidin-5-yl)acrylamide] — 5.6-fold lower, 180 nM
- NC(=O)/C=C/c1c[nH]c2ncnc(OCC(F)(F)F)c12 [Example 191, (E)-3-(4-(2,2,2-trifluoroethoxy)-7H-pyrrolo[2,3-d]pyrimidin-5-yl)acrylamide] — 6.7-fold lower, 150 nM
- NC(=O)/C=C/c1c[nH]c2ncnc(OCc3cccc(F)c3)c12 [Example 194, (E)-3-(4-((3-fluorobenzyl)oxy)-7H-pyrrolo[2,3-d]pyrimidin-5-yl)acrylamide] — 23-fold lower, 43 nM

same assay, conditions: Homo sapiens, 5 μM compound, 1 ng/ml rhIL1β, 18 hrs, read-out: IL-6 Production % Control 5 μM

Point of comparison: `CC(C)COc1ncnc2[nH]cc(/C=C/C(=O)O)c12` [Example 178, (E)-3-(4-isobutoxy-7H-pyrrolo[2,3-d]pyrimidin-5-yl)acrylic acid], activity at 5 µM 68%. Against it:
- CC(C)COc1ncnc2[nH]cc(C=C(F)C(N)=O)c12 (stereo in doubt) [Example 200, (E) 2-fluoro-3-(4-isobutoxy-7H-pyrrolo[2,3-d]pyrimidin-5-yl)-acrylamide] — lower, 61%
- CC(C)COc1ncnc2[nH]cc(C#N)c12 [Example 1, 4-isobutoxy-7H-pyrrolo[2,3-d]pyrimidine-5-carbonitrile] — higher, 83%
- NC(=O)/C=C/c1c[nH]c2ncnc(OCc3ccccc3)c12 [Example 96, (E)-3-(4-benzyloxy-7H-pyrrolo[2,3-d]pyrimidin-5-yl)-acrylamide] — higher, 78%
- COC(=O)/C=C/c1c[nH]c2ncnc(OCC(C)C)c12 [Example 176, (E)-methyl 3-(4-isobutoxy-7H-pyrrolo[2,3-d]pyrimidin-5-yl)acrylate] — lower, 1%
- CCC(C)Oc1ncnc2[nH]cc(/C=C/C(N)=O)c12 (centres unmarked) [Example 187, (E)-3-(4-(sec-butoxy)-7H-pyrrolo[2,3-d]pyrimidin-5-yl)acrylamide] — lower, 0%
- CC(C)Oc1ncnc2[nH]cc(/C=C/C(N)=O)c12 [Example 188, (E)-3-(4-isopropoxy-7H-pyrrolo[2,3-d]pyrimidin-5-yl)acrylamide] — lower, 0%
- CCCOc1ncnc2[nH]cc(/C=C/C(N)=O)c12 [Example 189, (E)-3-(4-propoxy-7H-pyrrolo[2,3-d]pyrimidin-5-yl)acrylamide] — lower, 0%
- NC(=O)/C=C/c1c[nH]c2ncnc(Oc3ccccc3)c12 [Example 190, (E)-3-(4-phenoxy-7H-pyrrolo[2,3-d]pyrimidin-5-yl)acrylamide] — lower, 15%
- NC(=O)/C=C/c1c[nH]c2ncnc(OCC(F)(F)F)c12 [Example 191, (E)-3-(4-(2,2,2-trifluoroethoxy)-7H-pyrrolo[2,3-d]pyrimidin-5-yl)acrylamide] — lower, 0%
- NC(=O)/C=C/c1c[nH]c2ncnc(OCc3cccc(F)c3)c12 [Example 194, (E)-3-(4-((3-fluorobenzyl)oxy)-7H-pyrrolo[2,3-d]pyrimidin-5-yl)acrylamide] — lower, 1%

same assay, conditions: Homo sapiens, 50 μM compound, 1 ng/ml rhIL1β, 18 hrs, read-out: IL-6 Production % Control 50 μM

Point of comparison: `CC(C)Oc1ncnc2[nH]cc(/C=C/C(N)=O)c12` [Example 188, (E)-3-(4-isopropoxy-7H-pyrrolo[2,3-d]pyrimidin-5-yl)acrylamide], activity at 50 µM 0%. Against it:
- CC(C)COc1ncnc2[nH]cc(C=C(F)C(N)=O)c12 (stereo in doubt) [Example 200, (E) 2-fluoro-3-(4-isobutoxy-7H-pyrrolo[2,3-d]pyrimidin-5-yl)-acrylamide] — higher, 14%
- CC(C)COc1ncnc2[nH]cc(C#N)c12 [Example 1, 4-isobutoxy-7H-pyrrolo[2,3-d]pyrimidine-5-carbonitrile] — higher, 6%
- NC(=O)/C=C/c1c[nH]c2ncnc(OCc3ccccc3)c12 [Example 96, (E)-3-(4-benzyloxy-7H-pyrrolo[2,3-d]pyrimidin-5-yl)-acrylamide] — the same, 0%
- COC(=O)/C=C/c1c[nH]c2ncnc(OCC(C)C)c12 [Example 176, (E)-methyl 3-(4-isobutoxy-7H-pyrrolo[2,3-d]pyrimidin-5-yl)acrylate] — the same, 0%
- CC(C)COc1ncnc2[nH]cc(/C=C/C(=O)O)c12 [Example 178, (E)-3-(4-isobutoxy-7H-pyrrolo[2,3-d]pyrimidin-5-yl)acrylic acid] — higher, 1%
- CCC(C)Oc1ncnc2[nH]cc(/C=C/C(N)=O)c12 (centres unmarked) [Example 187, (E)-3-(4-(sec-butoxy)-7H-pyrrolo[2,3-d]pyrimidin-5-yl)acrylamide] — the same, 0%
- CCCOc1ncnc2[nH]cc(/C=C/C(N)=O)c12 [Example 189, (E)-3-(4-propoxy-7H-pyrrolo[2,3-d]pyrimidin-5-yl)acrylamide] — the same, 0%
- NC(=O)/C=C/c1c[nH]c2ncnc(Oc3ccccc3)c12 [Example 190, (E)-3-(4-phenoxy-7H-pyrrolo[2,3-d]pyrimidin-5-yl)acrylamide] — the same, 0%
- NC(=O)/C=C/c1c[nH]c2ncnc(OCC(F)(F)F)c12 [Example 191, (E)-3-(4-(2,2,2-trifluoroethoxy)-7H-pyrrolo[2,3-d]pyrimidin-5-yl)acrylamide] — the same, 0%
- NC(=O)/C=C/c1c[nH]c2ncnc(OCc3cccc(F)c3)c12 [Example 194, (E)-3-(4-((3-fluorobenzyl)oxy)-7H-pyrrolo[2,3-d]pyrimidin-5-yl)acrylamide] — higher, 1%

target: TAK1-TAB1 (Homo sapiens (Human), UniProt O43318); assay: TAK1-TAB1 competitive binding assay (LanthaScreen), without pre-incubation; details: 10 nM TAK1-TAB1, 100 nM kinase tracer-236, read-out: TAK1-TAB1 Inhibition IC50
Description: TAK1-TAB1 Binding Inhibitory Potency: The ability of candidate compounds to interact with TAK1-TAB1 is quantitated by a competitive binding assay using the LanthaScreen technology developed by Life Technologies. This assay is based on the binding of a proprietary, Alexa Fluor® 647-labeled, ATP-competitive kinase inhibitor (kinase tracer-236) to the TAK1-TAB1 construct in presence of a europium-conjugated antibody, resulting in a FRET (fluorescence resonance energy transfer) signal. Displacement of the kinase tracer by compound results in a lower emission ratio upon excitation of the europium chelate. Candidate compounds are designed as potential irreversible inhibitors of TAK1-TAB1, capable of ligating to an active site cysteine residue. The time dependent nature of irreversible inhibition is investigated by performing the binding assay with and without a pre-incubation of compound and TAK1-TAB1.
The inhibitory potency of candidate compounds is measured in 20 mM HEPES pH 7.5, 10 mM MgCl2, 0.01% BSA, 0.0005% Tween-20, and 2% DMSO in the presence of 10 nM TAK1-TAB1, 2 nM Eu-anti-his antibody, and 100 nM kinase tracer-236 using a 384-well plate format. Background signal is defined in the absence of TAK1-TAB1 and uninhibited signal is defined in the presence of vehicle (2% DMSO) alone. Compounds were evaluated in an 11 point dose-response ranging from 20 μM to 0.34 nM. The binding assays are performed under two conditions to evaluate time dependence of inhibition. For the pre-incubation assay, TAK1-TAB1 and Eu-anti-his antibody are preincubated with compound or vehicle for two hours prior to the addition of kinase tracer. The non-preincubated assay is run in which TAK1-TAB1 and Eu-anti-his antibody are added to a mixture of compound and kinase tracer. IC50 values of compounds are determined using a 4 parameter logistical fit of emission ratio as a function of the concentration of compound.
Compounds were tested in accordance with the above described assay, without pre-incubation, yielding the values described below: […]

Chain of TAK1-TAB1 (O43318 other isoform, or with tags, fused parts or gaps): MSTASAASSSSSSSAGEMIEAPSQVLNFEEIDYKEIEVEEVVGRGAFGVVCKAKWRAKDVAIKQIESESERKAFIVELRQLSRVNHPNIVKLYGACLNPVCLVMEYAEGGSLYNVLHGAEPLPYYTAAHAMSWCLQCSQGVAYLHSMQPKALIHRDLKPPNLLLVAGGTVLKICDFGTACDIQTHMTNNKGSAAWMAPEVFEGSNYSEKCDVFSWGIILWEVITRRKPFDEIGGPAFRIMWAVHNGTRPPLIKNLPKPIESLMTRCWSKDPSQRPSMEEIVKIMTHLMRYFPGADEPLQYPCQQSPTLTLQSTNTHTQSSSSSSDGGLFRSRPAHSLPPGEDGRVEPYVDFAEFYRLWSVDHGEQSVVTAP

Point of comparison: `NC(=O)/C=C/c1c[nH]c2ncnc(OCc3ccccc3)c12` [Example 96, (E)-3-(4-benzyloxy-7H-pyrrolo[2,3-d]pyrimidin-5-yl)-acrylamide], IC50 730 nM. Against it:
- CC(C)COc1ncnc2[nH]cc(C=C(F)C(N)=O)c12 (stereo in doubt) [Example 200, (E) 2-fluoro-3-(4-isobutoxy-7H-pyrrolo[2,3-d]pyrimidin-5-yl)-acrylamide] — within 1.5-fold, 860 nM
- CC(C)COc1ncnc2[nH]cc(C#N)c12 [Example 1, 4-isobutoxy-7H-pyrrolo[2,3-d]pyrimidine-5-carbonitrile] — within 1.5-fold, 560 nM
- CC(C)COc1ncnc2[nH]cc(/C=C/C#N)c12 [Example 35, (E)-3-(4-isobutoxy-7H-pyrrolo[2,3-d]pyrimidin-5-yl)acrylonitrile] — 3.5-fold lower, 210 nM
- CC(C)COc1ncnc2[nH]cc(/C=C\C#N)c12 [Example 36, (Z)-3-(4-isobutoxy-7H-pyrrolo[2,3-d]pyrimidin-5-yl)acrylonitrile] — 4.3-fold lower, 170 nM
- CC(=O)/C=C/c1c[nH]c2ncnc(OCC(C)C)c12 [Example 37, (E)-4-(4-isobutoxy-7H-pyrrolo[2,3-d]pyrimidin-5-yl)but-3-en-2-one] — 7.3-fold lower, 100 nM
- COC(=O)/C=C/c1c[nH]c2ncnc(OCC(C)C)c12 [Example 176, (E)-methyl 3-(4-isobutoxy-7H-pyrrolo[2,3-d]pyrimidin-5-yl)acrylate] — 3.6-fold lower, 200 nM
- CC(C)COc1ncnc2[nH]cc(/C=C/C(=O)O)c12 [Example 178, (E)-3-(4-isobutoxy-7H-pyrrolo[2,3-d]pyrimidin-5-yl)acrylic acid] — 2.1-fold lower, 340 nM
- CCC(C)Oc1ncnc2[nH]cc(/C=C/C(N)=O)c12 (centres unmarked) [Example 187, (E)-3-(4-(sec-butoxy)-7H-pyrrolo[2,3-d]pyrimidin-5-yl)acrylamide] — 170-fold lower, 4.3 nM
- CC(C)Oc1ncnc2[nH]cc(/C=C/C(N)=O)c12 [Example 188, (E)-3-(4-isopropoxy-7H-pyrrolo[2,3-d]pyrimidin-5-yl)acrylamide] — 170-fold lower, 4.4 nM
- CCCOc1ncnc2[nH]cc(/C=C/C(N)=O)c12 [Example 189, (E)-3-(4-propoxy-7H-pyrrolo[2,3-d]pyrimidin-5-yl)acrylamide] — 38-fold lower, 19 nM
- NC(=O)/C=C/c1c[nH]c2ncnc(Oc3ccccc3)c12 [Example 190, (E)-3-(4-phenoxy-7H-pyrrolo[2,3-d]pyrimidin-5-yl)acrylamide] — 4.3-fold lower, 170 nM
- NC(=O)/C=C/c1c[nH]c2ncnc(OCC(F)(F)F)c12 [Example 191, (E)-3-(4-(2,2,2-trifluoroethoxy)-7H-pyrrolo[2,3-d]pyrimidin-5-yl)acrylamide] — 22-fold lower, 33 nM

From patent US9505765B2, “4-alkoxy/aralkoxy-5-substituted-pyrrolopyrimidine compounds as TAK1 inhibitors in disease treatment” (Confluence Life Sciences Inc., priority 2012, dated 2016)
